The values below come from patent US6936723B2, “Synthetic salicylihalamides, apicularens and derivatives thereof” (Board of Regents, The University of Texas System, priority 2000, dated 2005).

For data set [1], the target named is trans-membraneous proton channel domain of V-ATPase (Bos taurus, UniProt P23956+P61420+Q29466+Q2TA24). The data set is described as follows: Incubation with V-ATPase domains independently: proton channel domain. Type of data set: biochemical. The source says: Therefore, the present invention provides a method for inhibiting the proton-pumping activity of V-ATPase by contacting V-ATPase, either in vitro or in vivo with the compounds of the present invention. Inhibition of the proton-pumping activity of V-ATPase is useful, inter alia, for the treatment and prevention of cancer and osteoporosis. […] See Boyd, M. R. et al., J Pharmacol. Exp. Ther. 297, 114-120 (2001); see also, PCT publication WO 00/51589 of Boyd et al. V-ATPase is composed of an ATPase domain and a proton translocating membraneous channel. […] See Crider, Xie and Stone, J. Biol. Chem. 269:17379-17381 (1994) for the experimental procedure for binding. This was shown by incubating select compounds of the present invention with the domains independently and showing that 70% of the channel activity was inhibited at 1 nM of the compound while there was virtually no interference with ATPase activity at the same concentration. See Example 7 and Table 5 below. See also Bill. Crider, Xie and Stone, J Biol. Chem. 269:17379-17381 (1994).

In a further data set the test system is NCI 60-cell line panel. The data set is described as follows: NCI 60-cell line human tumor screen (sulforhodamine B). Format: cell-based. To be noted: 48 hours incubation; 10^−6 to 10^−10 molar. From the text:
The NCI 60-cell line human tumor screen is a measure of the effectiveness of a compound for inhibiting or killing various human cancers. It is a set of 60 different cancer cell lines against which chemical compounds can be tested against to determine if the compound has anti-cancer activity. Each compound has an individual “fingerprint” based on effectiveness in killing each of the 60 cancer cell lines.
The anti-cancer activity of the synthesized (+)- and (−)-salicylihalamide-A compounds of the present invention (compounds 78 in FIG. 10 and 301a/301c in FIG. 14.) was indistinguishable. […] Salicylihalamide derivatives, showing increased stability over natural salicylihalamide, were tested in the NCI 60 cell-line screen. This screen is an art recognized model. Prior to assay, synthesized compounds were stored in dimethylsulfoxide at −70° C. Five different test concentrations of each compound were prepared by diluting the stock solution into complete medium. Sample concentrations were 2× the final concentration and range from 10^−6 and 10^−10 molar. An aliquot of each concentration of each compound was added to separate microtiter wells containing the respective cell lines in culture medium. The plates were incubated for 48 hours at 37° C. with 5% CO2 and 100% humidity. Adherent cells were fixed by addition of cold 50% trichloracetic acid and incubation at 4° C. for 60 minutes. Suspended cells were fixed to the bottom of the well by addition of 80% trichloracetic acid. The supernatant was removed from each well and then each well was washed with deionized water and allowed to dry. Sulforhodamine B solution was added to each well and allowed to incubate for 10 minutes at room temperature. Unbound sulforhodamine B was removed by washing with 1% acetic acid. The wells were allowed to dry. Bound sulforhodamine B was solubilized using 10 mM Tris base and the optical density at 515 nanometers was determined.

A further data set relates to SK-MEL-28 cells. The data set can be described thus: Anti-cancer activity against SK-MEL-28 cells. Format: cell-based, human. As to conditions: at 10 nM. The source says: The inventor has accomplished the first synthesis of both […] and (−)-salicylihalamide A. The synthesis utilizes a highly efficient, trans-selective ring-closing olefin metathesis for the assembly of the benzolactone skeleton and can be readily adapted to obtain a variety of analogs. […] This cell line is one of the cell lines in the NCI 60 cell line screen.
The absolute configuration of natural salicylihalamide A (1a) was originally misassigned in Boyd et al., 1997. The correct configuration is represented by structure 89. The ultimate proof for this assignment came from a crystallographic analysis of a p-bromobenzoate derivative of salicylihalamide 90, prepared from 73 in a manner similar to the synthesis of 74. […] (−)-salicylihalamide A does have chemotherapeutic activity. […] This cell line is one of the cell lines in the NCI 60 cell line screen.

Data set [2] concerns the target T1, purified reconstituted V-ATPase from bovine brain (Bos taurus, UniProt P23956+P61420+Q29466+Q2TA24).
T1 construct: from tissue; host or cells: bovine brain
The data set can be described thus: Inhibition of purified reconstituted V-ATPase (proton pumping). Format: biochemical. The source says:
Therefore, the present invention provides a method for inhibiting the proton-pumping activity of V-ATPase by contacting V-ATPase, either in vitro or in vivo with the compounds of the present invention. […] See Boyd, M. R. et al., J Pharmacol. Exp. Ther. 297, 114-120 (2001); see also, PCT publication WO 00/51589 of Boyd et al. V-ATPase is composed of an ATPase domain and a proton translocating membraneous channel. […] See Crider, Xie and Stone, J. Biol. Chem. 269:17379-17381 (1994) for the experimental procedure for binding. […] See Example 7 and Table 5 below. See also Bill. Crider, Xie and Stone, J Biol. Chem. 269:17379-17381 (1994).
Others in the art typically use crude membrane preparations to assay V-ATPase activity.

Chain of trans-membraneous proton channel domain of V-ATPase (P61420 whole entry, other chains not shown, the tested form may be a part): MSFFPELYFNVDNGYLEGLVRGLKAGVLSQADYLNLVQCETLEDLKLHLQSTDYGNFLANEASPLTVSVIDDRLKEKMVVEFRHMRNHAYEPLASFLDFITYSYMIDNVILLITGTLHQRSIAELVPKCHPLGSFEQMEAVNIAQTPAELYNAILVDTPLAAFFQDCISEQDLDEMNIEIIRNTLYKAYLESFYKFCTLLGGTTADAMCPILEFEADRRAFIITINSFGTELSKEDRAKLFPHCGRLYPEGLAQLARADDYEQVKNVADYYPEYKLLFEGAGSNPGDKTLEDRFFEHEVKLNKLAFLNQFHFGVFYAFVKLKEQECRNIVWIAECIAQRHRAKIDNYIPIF
Chain of trans-membraneous proton channel domain of V-ATPase (P23956 whole entry, other chains not shown, the tested form may be a part): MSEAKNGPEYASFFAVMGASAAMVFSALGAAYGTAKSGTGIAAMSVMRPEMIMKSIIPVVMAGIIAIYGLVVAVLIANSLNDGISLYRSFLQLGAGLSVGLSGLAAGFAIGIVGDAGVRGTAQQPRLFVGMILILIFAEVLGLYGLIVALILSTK
Chain of trans-membraneous proton channel domain of V-ATPase (Q29466 whole entry, other chains not shown, the tested form may be a part): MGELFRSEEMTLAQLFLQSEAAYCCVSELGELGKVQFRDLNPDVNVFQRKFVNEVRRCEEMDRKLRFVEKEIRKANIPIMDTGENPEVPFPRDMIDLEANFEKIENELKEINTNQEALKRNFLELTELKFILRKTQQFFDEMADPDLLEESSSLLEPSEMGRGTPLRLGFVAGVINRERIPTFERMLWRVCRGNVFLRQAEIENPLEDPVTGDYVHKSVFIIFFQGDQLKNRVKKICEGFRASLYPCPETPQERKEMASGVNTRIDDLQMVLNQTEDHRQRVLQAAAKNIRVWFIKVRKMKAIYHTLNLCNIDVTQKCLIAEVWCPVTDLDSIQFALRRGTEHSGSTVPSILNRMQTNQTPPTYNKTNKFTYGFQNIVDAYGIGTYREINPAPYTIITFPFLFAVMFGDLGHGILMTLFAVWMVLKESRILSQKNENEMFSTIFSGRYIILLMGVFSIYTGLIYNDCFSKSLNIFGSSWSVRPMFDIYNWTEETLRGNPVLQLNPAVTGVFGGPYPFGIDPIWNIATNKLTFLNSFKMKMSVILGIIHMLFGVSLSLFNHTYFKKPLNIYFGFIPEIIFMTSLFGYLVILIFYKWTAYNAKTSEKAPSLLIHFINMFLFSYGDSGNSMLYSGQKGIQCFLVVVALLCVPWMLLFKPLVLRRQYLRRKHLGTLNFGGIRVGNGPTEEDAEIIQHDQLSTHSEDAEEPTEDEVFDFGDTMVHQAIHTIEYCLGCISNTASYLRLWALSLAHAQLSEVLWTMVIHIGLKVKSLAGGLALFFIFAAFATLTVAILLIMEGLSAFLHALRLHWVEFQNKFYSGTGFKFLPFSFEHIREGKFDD
Chain of trans-membraneous proton channel domain of V-ATPase (Q2TA24 whole entry, other chains not shown, the tested form may be a part): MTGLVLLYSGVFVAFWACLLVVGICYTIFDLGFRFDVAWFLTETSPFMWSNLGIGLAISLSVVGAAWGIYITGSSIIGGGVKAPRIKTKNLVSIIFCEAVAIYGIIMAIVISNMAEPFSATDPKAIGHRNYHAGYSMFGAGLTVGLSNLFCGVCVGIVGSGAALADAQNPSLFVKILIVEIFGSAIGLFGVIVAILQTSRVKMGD

Turning to `CC/C=C\C=C/C(=O)N/C=C/C[C@H]1C[C@@H](O)[C@@H](C)C/C=C/Cc2cccc(O)c2C(=O)O1` [Compound 301a, salicylihalamide A], in data set [1], the “binding site on V-ATPase” value is “membrane spanning Vo proton channel”. Further, the “activity / differential cytotoxicity profile in the NCI 60-cell line screen” value in the data set with NCI 60-cell line panel is on record as “differential cytotoxicity profile undistinguishable from the natural product”. Further, the “anti-cancer activity against SK-MEL-28 cells” value in the data set on SK-MEL-28 cells was “active”. Besides, the “mode of V-ATPase inhibition (reversibility)” value in data set [2] is reported as “reversible inhibitor”.
